Test results: ChEMBL document CHEMBL3885861, “Open TG-GATES”

Species on record: Rattus norvegicus
Experiment: Open TG-GATES - Regimen: Daily Repeat
Type: toxicity, organism-based, Sprague-Dawley
Parameters: regimen Daily Repeat, gender Male, age 6 weeks
Conditions: in vivo, po, 10 mg/kg, route gavage, dose level Middle; for APTT / Bas / Eos / Fbg / Hb / Ht / Lym / MCH / MCHC / MCV / Mono / Neu / PT / Plat / RBC / Ret / WBC: tissue Blood; for KIDNEY_L / KIDNEY_R / KIDNEY_TOTAL: tissue Kidney; for LIVER: tissue Liver; for A/G / ALP / ALT / AST / BUN / CRE / Ca / Cl / DBIL / GLC / IP / K / LDH / Na / PL / RALB / TBIL / TC / TG / TP / gamma-GTP: tissue Plasma

Nc1c2c(nc3ccccc13)CCCC2 [TACRINE]
TERMINAL_BW (72 h, time 3 day): 217.3 g
APTT (72 h, time 3 day): 19.9 s
Bas (72 h, time 3 day): 0%
Eos (72 h, time 3 day): 1%
Fbg (72 h, time 3 day): 290 mg/dL
Hb (72 h, time 3 day): 13.5 g/dL
Ht (72 h, time 3 day): 38.4%
Lym (72 h, time 3 day): 76.8%
MCH (72 h, time 3 day): 21 pg
MCHC (72 h, time 3 day): 35.3%
MCV (72 h, time 3 day): 59.5 fL
Mono (72 h, time 3 day): 2.2%
Neu (72 h, time 3 day): 19.2%
PT (72 h, time 3 day): 15.7 s
Plat (72 h, time 3 day): 128 x10_4/uL
RBC (72 h, time 3 day): 645.4 x10_4/ul
Ret (72 h, time 3 day): 5.5%
WBC (72 h, time 3 day): 74.8 x10_2/uL
KIDNEY_L (72 h, time 3 day): 0.9 g
KIDNEY_R (72 h, time 3 day): 1 g
KIDNEY_TOTAL (72 h, time 3 day): 1.9 g
LIVER (72 h, time 3 day): 9.2 g
A/G (72 h, time 3 day): 1.2
ALP (72 h, time 3 day): 1488.6 IU/L
ALT (72 h, time 3 day): 42.6 IU/L
AST (72 h, time 3 day): 75.4 IU/L
BUN (72 h, time 3 day): 14.4 mg/dL
CRE (72 h, time 3 day): 0.2 mg/dL
Ca (72 h, time 3 day): 10.6 mg/dL
Cl (72 h, time 3 day): 108 meq/L
DBIL (72 h, time 3 day): 0 mg/dL
GLC (72 h, time 3 day): 186.2 mg/dL
IP (72 h, time 3 day): 7.1 mg/dL
K (72 h, time 3 day): 4.4 meq/L
LDH (72 h, time 3 day): 253 IU/L
Na (72 h, time 3 day): 142 meq/L
PL (72 h, time 3 day): 153.6 mg/dL
RALB (72 h, time 3 day): 3.1 g/dL
TBIL (72 h, time 3 day): 0.014 mg/dL
TC (72 h, time 3 day): 78.6 mg/dL
TG (72 h, time 3 day): 94.4 mg/dL
TP (72 h, time 3 day): 5.7 g/dL
gamma-GTP (72 h, time 3 day): 1 IU/L
TERMINAL_BW ([…], time 7 day): 245.3 g
TERMINAL_BW ([…], time 14 day): 297.7 g
TERMINAL_BW ([…], time 28 day): 336.4 g
APTT ([…], time 7 day): 22.4 s
Bas ([…], time 7 day): 0%
Eos ([…], time 7 day): 0.6%
Fbg ([…], time 7 day): 307.4 mg/dL
Hb ([…], time 7 day): 14 g/dL
Ht ([…], time 7 day): 40.1%
Lym ([…], time 7 day): 77.4%
MCH ([…], time 7 day): 20.9 pg
MCHC ([…], time 7 day): 34.8%
MCV ([…], time 7 day): 60 fL
Mono ([…], time 7 day): 2.2%
Neu ([…], time 7 day): 18.8%
PT ([…], time 7 day): 15.8 s
Plat ([…], time 7 day): 117.3 x10_4/uL
RBC ([…], time 7 day): 668 x10_4/ul
Ret ([…], time 7 day): 5.4%
WBC ([…], time 7 day): 103.5 x10_2/uL
APTT ([…], time 14 day): 23.1 s
Bas ([…], time 14 day): 0%
Eos ([…], time 14 day): 0.8%
Fbg ([…], time 14 day): 317.6 mg/dL
Hb ([…], time 14 day): 14.7 g/dL
Ht ([…], time 14 day): 41.8%
Lym ([…], time 14 day): 84.4%
MCH ([…], time 14 day): 20.8 pg
MCHC ([…], time 14 day): 35.1%
MCV ([…], time 14 day): 59.4 fL
Mono ([…], time 14 day): 1.4%
Neu ([…], time 14 day): 12.6%
PT ([…], time 14 day): 15.5 s
Plat ([…], time 14 day): 117.2 x10_4/uL
RBC ([…], time 14 day): 704.4 x10_4/ul
Ret ([…], time 14 day): 4.3%
WBC ([…], time 14 day): 95.3 x10_2/uL
APTT ([…], time 28 day): 22.6 s
Bas ([…], time 28 day): 0%
Eos ([…], time 28 day): 1%
Fbg ([…], time 28 day): 301.8 mg/dL
Hb ([…], time 28 day): 15.1 g/dL
Ht ([…], time 28 day): 41.2%
Lym ([…], time 28 day): 79.6%
MCH ([…], time 28 day): 20.1 pg
MCHC ([…], time 28 day): 36.7%
MCV ([…], time 28 day): 54.7 fL
Mono ([…], time 28 day): 2%
Neu ([…], time 28 day): 16.6%
PT ([…], time 28 day): 16.4 s
Plat ([…], time 28 day): 93.2 x10_4/uL
RBC ([…], time 28 day): 752 x10_4/ul
Ret ([…], time 28 day): 2.9%
WBC ([…], time 28 day): 95.4 x10_2/uL
KIDNEY_L ([…], time 7 day): 1 g
KIDNEY_R ([…], time 7 day): 1.1 g
KIDNEY_TOTAL ([…], time 7 day): 2.1 g
KIDNEY_L ([…], time 14 day): 1.1 g
KIDNEY_R ([…], time 14 day): 1.2 g
KIDNEY_TOTAL ([…], time 14 day): 2.3 g
KIDNEY_L ([…], time 28 day): 1.2 g
KIDNEY_R ([…], time 28 day): 1.2 g
KIDNEY_TOTAL ([…], time 28 day): 2.4 g
LIVER ([…], time 7 day): 10.5 g
LIVER ([…], time 14 day): 12.6 g
LIVER ([…], time 28 day): 12.9 g
A/G ([…], time 7 day): 1.2
ALP ([…], time 7 day): 1555.6 IU/L
ALT ([…], time 7 day): 42.2 IU/L
AST ([…], time 7 day): 82.8 IU/L
BUN ([…], time 7 day): 15.8 mg/dL
CRE ([…], time 7 day): 0.2 mg/dL
Ca ([…], time 7 day): 10.6 mg/dL
Cl ([…], time 7 day): 108.2 meq/L
DBIL ([…], time 7 day): 0.004 mg/dL
GLC ([…], time 7 day): 180 mg/dL
IP ([…], time 7 day): 6.8 mg/dL
K ([…], time 7 day): 4.1 meq/L
LDH ([…], time 7 day): 235.6 IU/L
Na ([…], time 7 day): 141 meq/L
PL ([…], time 7 day): 145.2 mg/dL
RALB ([…], time 7 day): 3 g/dL
TBIL ([…], time 7 day): 0.024 mg/dL
TC ([…], time 7 day): 72.2 mg/dL
TG ([…], time 7 day): 120.8 mg/dL
TP ([…], time 7 day): 5.5 g/dL
gamma-GTP ([…], time 7 day): 1 IU/L
A/G ([…], time 14 day): 1.2
ALP ([…], time 14 day): 1291.4 IU/L
ALT ([…], time 14 day): 36.8 IU/L
AST ([…], time 14 day): 67.8 IU/L
BUN ([…], time 14 day): 18.4 mg/dL
CRE ([…], time 14 day): 0.2 mg/dL
Ca ([…], time 14 day): 10.8 mg/dL
Cl ([…], time 14 day): 108 meq/L
DBIL ([…], time 14 day): 0 mg/dL
GLC ([…], time 14 day): 185.2 mg/dL
IP ([…], time 14 day): 6.4 mg/dL
K ([…], time 14 day): 4 meq/L
LDH ([…], time 14 day): 168 IU/L
Na ([…], time 14 day): 142.6 meq/L
PL ([…], time 14 day): 152.6 mg/dL
RALB ([…], time 14 day): 3.2 g/dL
TBIL ([…], time 14 day): 0.004 mg/dL
TC ([…], time 14 day): 75 mg/dL
TG ([…], time 14 day): 136.2 mg/dL
TP ([…], time 14 day): 5.8 g/dL
gamma-GTP ([…], time 14 day): 1 IU/L
A/G ([…], time 28 day): 1.1
ALP ([…], time 28 day): 1046.8 IU/L
ALT ([…], time 28 day): 37 IU/L
AST ([…], time 28 day): 63.4 IU/L
BUN ([…], time 28 day): 18.8 mg/dL
CRE ([…], time 28 day): 0.2 mg/dL
Ca ([…], time 28 day): 10.5 mg/dL
Cl ([…], time 28 day): 107.4 meq/L
DBIL ([…], time 28 day): 0 mg/dL
GLC ([…], time 28 day): 188.8 mg/dL
IP ([…], time 28 day): 6.7 mg/dL
K ([…], time 28 day): 4.1 meq/L
LDH ([…], time 28 day): 116 IU/L
Na ([…], time 28 day): 141.8 meq/L
PL ([…], time 28 day): 142 mg/dL
RALB ([…], time 28 day): 3.1 g/dL
TBIL ([…], time 28 day): 0.006 mg/dL
TC ([…], time 28 day): 70.4 mg/dL
TG ([…], time 28 day): 121 mg/dL
TP ([…], time 28 day): 5.9 g/dL
gamma-GTP ([…], time 28 day): 1.2 IU/L
